# Measured values as given in US20090246880A1, “Method for preventing degradation of diacetylpolyamine” (priority 2008, published 2009).
# Method: The present invention will next be described in detail by way of examples, which should not be construed as limiting the invention thereto. The percent degradation of diacetylspermine (%) in a sample was calculated on the basis of the amount of diacetylspermine as determined through ELISA. […] Subsequently, the pH of the mixture was adjusted with 50 mM phosphate buffer to 5.5, 6.0, 6.5, 7.0, 7.5, or 8.0. Thereafter, the reaction mixture was incubated at 37° C. for two hours. […] Subsequently, the ratio of the amount of diacetylspermine degraded through incubation to the initial amount of diacetylspermine was calculated.
structure (smiles),measurement,value
CC(=O)NCCCNCCCCNCCCNC(C)=O [diacetylspermine],degradation of diacetylspermine (in words),prevented
